Reference: patent publication US8828971B2, “Galactose-pronged carbohydrate compounds for the treatment of diabetic nephropathy and associated disorders” (Galectin Therapeutics, Inc., priority 2012, dated 2014)

Tests used:
[1] = test system: mouse model of diabetic nephropathy; assay: Sirius red stained kidney sections with digital morphometry, mouse model of diabetic nephropathy; format: in vivo; conditions: diabetic mice, IV 40 mg/kg three times weekly for four weeks; for Sirius red staining (interstitial collagen between renal tubules), histological appearance: FIG. 2, 40 mg/kg
Method: Shown are low (×50) and high magnification (×200) pictures of the three experimental groups: 1) Normal mouse; 2) Diabetic mice treated with vehicle (phosphate buffered saline, treatment control); and 3) Diabetic mice treated with GR-MD-02/001 B (IV 40 mg/kg). The arrows point to a stained strand that indicates the presence of collagen type.
Statistical comparisons of the percent Sirius red staining shown for the three experimental groups: 1) Normal mouse; 2) Diabetic mice treated with vehicle (phosphate buffered saline, treatment control); and 3) Diabetic mice treated with GR-MD-02/001 B (IV 40 mg/kg).
(§1) The experimental model used in this example is the mouse in which diabetes was induced and a high fat diet was administered. Diabetes was induced immediately following birth with a single injection of streptozotocin. Four weeks later the mice were started on a high fat diet.
(§2) Diabetic mice were treated either with vehicle (phosphate buffered saline) or GR-MD-02/001B given intravenously in a dose of 40 mg/kg three times weekly for four weeks total. There were eight (8) mice in each group. Two normal mice were also utilized as a comparison group.
Sirius red reagent is used as a stain to evaluate the increase in extracellular matrix material in the interstitium between tubular cells. Minimal red staining is seen in the normal animals. However, there is an increase in staining seen in the vehicle treated control animals.
Thirty two (32) separate slides from each group were blindly evaluated by quantitative digital morphometry for the percent staining with Sirius red.

[2] = test system: mouse model of diabetic nephropathy; assay: PAS stained kidney sections, mouse model of diabetic nephropathy; format: in vivo; conditions: diabetic mice, IV 40 mg/kg three times weekly for four weeks
Method: Shown are low (×200) and high magnification (×400) pictures of the three experimental groups: 1) Normal mouse; 2) Diabetic mice treated with vehicle (phosphate buffered saline, treatment control); and 3) Diabetic mice treated with GR-MD-02/001 B (IV 40 mg/kg). The arrows point to a glomerulus.
as §1, §2
The diabetic mice had clear histological evidence of diabetic nephropathy as shown in pictures of PAS stained kidney sections in FIG. 1. […] In the vehicle treated control animals there is a clear increase in mesangial basement membrane material (the pink extracellular matrix) over the normal animals.

galactoarabino-rhamnogalacturonate [GR-MD-02/001B]
Percent Sirius red staining by quantitative digital morphometry compared to vehicle treated controls ([1]; 32 slides per group, levels nearly the same as normal mice, FIG. 3): statistically significant decrease | Sirius red staining (interstitial collagen between renal tubules), histological appearance [1]: marked reduction | Sirius red staining (interstitial collagen between renal tubules), histological appearance ([1]; listed as GR-MD02/001B): reduced the deposition of matrix | Mesangial extracellular matrix material (PAS stain, glomerulus) compared to vehicle treated control animals ([2]; FIG. 1): marked decrease | Mesangial extracellular matrix material (PAS stain, glomerulus) compared to vehicle treated control animals ([2]; FIG. 1, listed as GR-MD02/001B): reduced the mesangial expansion of extracellular matrix
